Values quoted from earlier work, collected in patent US5545628A, “Pharmaceutical composition containing fenofibrate” (priority 1995, dated 1996).

Row | SMILES | excretion (fenofibric acid, mainly as the glucuronide conjugate) | absorption as metabolite (oral)
1 | CC(C)(Oc1ccc(C(=O)c2ccc(Cl)cc2)cc1)C(=O)O [Fenofibric acid] | excreted predominantly in the urine | 
2 | CC(C)OC(=O)C(C)(C)Oc1ccc(C(=O)c2ccc(Cl)cc2)cc1 [Fenofibrate, P-(4-chlorobenzoyl)-phenoxy isobutyrate isopropyl ester] |  | absorbed as fenofibric acid
